Patent US7122336B2, “Therapeutic and diagnostic methods for ulcerative colitis and associated disorders” (University of Medicine & Dentistry of New Jersey, priority 2000, dated 2006)
“Also recorded” adds a separate entry of the source.

Tests used:
[1] = system: secretion of hTM5 in LS-180 cells; assay: Secretion of hTM5 by 35S-methionine-labeled LS-180 cells (chase with drugs, immunoprecipitation of culture medium, SDS-PAGE-fluorography, densitometry of 31 kDa band); format: cell-based, human; conditions: PMA 10 μM; for effect on the secretion of hTM5 (in words): 7E12H12 and LC-1 immunoprecipitations (FIGS. 7B and 7C); for effect on the secretion of hTM5 (in words) / stimulation of the secretion of hTM5 (31 kDa band, densitometry) compared to only DMSO treatment: A23187 2 μM, 2 h chase; for stimulation of the secretion of hTM5 (31 kDa band, densitometry) compared to only DMSO treatment: LS-180 culture medium; for effect of inhibitors of secretion on the secretion of hTM5 (in words): LC-1 immunoprecipitation (FIG. 7D), monensin 10 μM, methylamine 10 mM added during the chase
Description: (§1) A) Culture supernatant of LS-180 cells, labeled with […] (100 μCi/ml) for 16 h and chased for 2 h incubated with various drugs, was immunoprecipitated and analyzed by 3–12% SDS-PAGE-fluorography. For untreated cells, 10 μl/ml of DMSO was added during the chase. Immunoprecipitation was performed using 7E12H12 (lanes 1–4) or LC-1 (lanes 5–8) mAbs. Lanes 1 and 5 show the immunoprecipitation profile of the culture supernatant from untreated cells. Note the presence of a 31 kDa protein in lanes 1 and 5. The effect of secretagogues was examined by addition of 2 μM A23187 (lanes 2 and 7) or 10 μM PMA (lanes 3 and 6) during the chase. To examine the combined effect, A23187 (2 μM) and PMA (10 μM) were added together (lanes 4 and 8, respectively). B and C) For quantitative determination, a densitometric analysis of the 31 kDa band, coimmunoprecipitated with CEP (lanes 1–4) or hTM5 (lane 5–8) was performed with a 1 square millimeter window using a BioRad 670 densitometer after overnight exposure of the gel. Histograms B and C represent lanes 1–4 and 5–8 respectively. D) Effect of inhibitors of secretion on the secretion of hTM5. The inhibitors were added during the chase and the culture medium was immunoprecipitated with LC-1 mAb. Lane-1: PMA (10 μM), Lane-2: DMSO only, Lane-3: monensin (10 μM), and Lane-4: methylamine (10 mM) and analyzed by 3–12% gradient SDS-PAGE-fluorography.
To examine the possible association of hTM5 with the colon epithelium-specific protein (CEP), reactive with 7E12H12 monoclonal antibody, we adopted the protocols for radiolabeling, chase and drug treatment used in the study of regulated and unregulated secretion of glycoproteins from colon cancer cells (McCool DJ., et al., Biochem J. 1995; 312: 125–33; and Brion C., et al., J. Biol. Chem. 1992; 267: 1477–83). LS-180 cells were labeled with ^35S-methionine by treatment with methionine-free medium supplemented with 5% dialyzed fetal bovine serum and ^35S-methionine (100 μCi/ml) for 16 hours. Labeling was terminated by washing the cells two times with PBS followed by chase with regular DME for 2 hr. To examine the effects of stimulators and inhibitors of secretion, appropriate drugs were added during the chase period as described (McCool et al., supra; and Brion, et al., supra). Immunoprecipitations were performed on the culture medium as described in Kesari, K V and Geliebter, J. Immunol. Letts 1993: 38: 77–83. After the chase, the culture medium was collected, centrifuged to remove any insoluble material, and mixed with one tenth volume of 10× lysis buffer (500 mM Tris Cl, […], 5% NP40, and protease inhibitor cocktail, Complete, Boehringer-Mannheim, GMBH, Germany). To reduce nonspecific binding, the culture medium, where LS-180 cells were grown, was preabsorbed with protein G agarose (GIBCO-BRL, NY) for 16 h at 4° C. Immunoprecipitation was carried out on ice with purified monoclonal antibodies (5 μg/ml) or ascites (10 μl/ml) for 2 h and the immune complexes were collected on Protein G Agarose. To collect IgM immune complexes, protein G Agarose was pre-coated with affinity purified rabbit anti mouse IgM-μ chain-specific immunoglobulins (2 mg IgG/ml gel). The immune complexes were washed three times by centrifugation with ice cold washing buffer-1 (50 mM Tris Cl, pH 7.4, 150 mM NaCl, 5 mM EDTA, and 0.5% NP40), followed by one wash in buffer-2 (50 mM Tris Cl, pH 7.4, 500 mM MaCl, 5 mM EDTA, and 0.5% NP40), and once with buffer-3 (50 mM Tris Cl, pH 7.4).
To investigate whether the release of hTM5 from LS-180 cells is an active process, the effect of known stimulators (secretagogues), and inhibitors of secretion was examined in the present invention. Two secretagogues, the Ca ^2 ionophore A23187, and phorbol-12-myristate-13-acetate (PMA) have been used to explore the secretory pathways in LS-180 cells (McCool D J et al (1995) supra). […]

[2] = system: secretion of CEP in LS-180 cells; assay: Secretion of CEP by 35S-methionine-labeled LS-180 cells (immunoprecipitation with 7E12H12); format: cell-based, human; conditions: 7E12H12 immunoprecipitation (FIG. 7A, lanes 1-4); A23187 2 μM, PMA 10 μM, or both
Description: as §1, with “gradient SDS-PAGE-fluorography. […]” for “gradient SDS-PAGE-fluorography.”

[3] = system: mucin secretion in LS-180 cells; conditions: McCool D J, et al. (1995); cited from earlier work
[4] = system: CEP; assay: Cell surface expression of CEP; format: cell-based

In the case of `CNc1ccc2oc(C[C@H]3O[C@@]4(CC[C@H]3C)O[C@H]([C@H](C)C(=O)c3ccc[nH]3)[C@H](C)C[C@H]4C)nc2c1C(=O)O` [A23187], the “effect on the secretion of hTM5 (in words)” value [1] is reported as “increased”, the “stimulation of the secretion of hTM5 (31 kDa band, densitometry) compared to only DMSO treatment” value ([1]; 7E12H12 immunoprecipitation (FIG. 7B)) is reported as 4.5 fold and the “stimulation of the secretion of hTM5 (31 kDa band, densitometry) compared to only DMSO treatment” value ([1]; LC-1 immunoprecipitation (FIG. 7C)) is reported as 7.8 fold. The “effect on secretion of CEP (in words)” value [2] was “unaffected” and the “effect on mucin secretion in LS-180 cells” value [3] was “stimulate”.
With `CCCCCCCCCCCCCC(=O)O[C@@H]1[C@@H](C)[C@@]2(O)[C@@H](C=C(CO)C[C@]3(O)C(=O)C(C)=C[C@@H]23)[C@@H]2C(C)(C)[C@]12OC(C)=O` [PMA, phorbol-12-myristate-13-acetate] the “effect on the secretion of hTM5 (in words)” value [1] was “almost totally inhibited”, the “effect of inhibitors of secretion on the secretion of hTM5 (in words)” value (shortened to “effect of inhibitors of secretion”) [1] was “absence of hTM5” and the “effect on secretion of CEP (in words)” value [2] was “unaffected”. The “effect on mucin secretion in LS-180 cells” value [3] was “stimulate”.
With `CN` [methylamine] the “effect of inhibitors of secretion” value [1] was “inhibited; also recorded: absence of hTM5”.
In the case of `CC[C@@]1([C@@H]2O[C@@H]([C@H]3O[C@@](O)(CO)[C@H](C)C[C@@H]3C)C[C@@H]2C)CC[C@H]([C@]2(C)CC[C@]3(C[C@H](O)[C@@H](C)[C@@H]([C@@H](C)[C@@H](OC)[C@H](C)C(=O)O)O3)O2)O1` [monensin], the “effect of inhibitors of secretion” value [1] is reported as “inhibited; also recorded: absence of hTM5” and the “cell surface expression of CEP, sensitivity to drug” value [4] is reported as “sensitive”.
